From patent publication US20040002445A1, “Enhancement of endogenous gonadotropin production” (priority 2002, published 2004)

What was measured:
plasma testosterone = assay: Phase 1 study of oral leuprolide acetate for 28 days, hormonal response (plasma testosterone); format: in vivo, human; conditions: for Testosterone levels: healthy males
From the text: Twenty subjects were assigned to each dosing group.

plasma LH and FSH = conditions: intermittent, but not continuous, administration; cited from earlier work
serum LH = conditions: two stimulations with 25 mcg each on 3 consecutive days, 12 normally menstruating females; cited from earlier work

For CCNC(=O)[C@@H]1CCCN1C(=O)[C@H](CCCNC(=N)N)NC(=O)[C@H](CC(C)C)NC(=O)[C@@H](CC(C)C)NC(=O)[C@H](Cc1ccc(O)cc1)NC(=O)[C@H](CO)NC(=O)[C@H](Cc1c[nH]c2ccccc12)NC(=O)[C@H](Cc1c[nH]cn1)NC(=O)[C@@H]1CCC(=O)N1 [leuprolide acetate], the “Testosterone levels relative to baseline” value (plasma testosterone; Group A, 5 mg q.d. oral) was “failed to raise the levels of testosterone above the baseline”, the Testosterone levels (plasma testosterone; Group A, 5 mg q.d. oral, Day 2, baseline 453.25) was 452.45 ng/dL and the Testosterone levels (plasma testosterone; Group A, 5 mg q.d. oral, Day 3, baseline 453.25) was 406.25 ng/dL. The Testosterone levels (plasma testosterone; Group A, 5 mg q.d. oral, Day 4, baseline 453.25) was 384.70 ng/dL, the Testosterone levels (plasma testosterone; Group A, 5 mg q.d. oral, Day 5, baseline 453.25) was 430.55 ng/dL and the Testosterone levels (plasma testosterone; Group A, 5 mg q.d. oral, Day 6, baseline 453.25) was 434.55 ng/dL. The Testosterone levels (plasma testosterone; Group A, 5 mg q.d. oral, Day 7, baseline 453.25) was 413.75 ng/dL, the Testosterone levels (plasma testosterone; Group A, 5 mg q.d. oral, Day 8, baseline 453.25) was 405.85 ng/dL and the Testosterone levels (plasma testosterone; Group A, 5 mg q.d. oral, Day 9, baseline 453.25) was 358.8 ng/dL. The Testosterone levels (plasma testosterone; Group A, 5 mg q.d. oral, Day 10, baseline 453.25) was 369.80 ng/dL, the “Testosterone levels relative to baseline” value (plasma testosterone; Group B, 5 mg b.i.d. oral) was “higher than the baseline until Day 7” and the Testosterone levels (plasma testosterone; Group B, 5 mg b.i.d. oral, Day 2, baseline 485.00) was 563.5 ng/dL. For the same molecule, the Testosterone levels (plasma testosterone; Group B, 5 mg b.i.d. oral, Day 3, baseline 485.00) was 541.35 ng/dL, the Testosterone levels (plasma testosterone; Group B, 5 mg b.i.d. oral, Day 4, baseline 485.00) was 527.40 ng/dL and the Testosterone levels (plasma testosterone; Group B, 5 mg b.i.d. oral, Day 5, baseline 485.00) was 502.85 ng/dL. It also gave a Testosterone levels (plasma testosterone; Group B, 5 mg b.i.d. oral, Day 6, baseline 485.00) of 493.25 ng/dL, a Testosterone levels (plasma testosterone; Group B, 5 mg b.i.d. oral, Day 7, baseline 485.00) of 484.75 ng/dL and a Testosterone levels (plasma testosterone; Group B, 5 mg b.i.d. oral, Day 8, baseline 485.00) of 449.10 ng/dL. The Testosterone levels (plasma testosterone; Group B, 5 mg b.i.d. oral, Day 9, baseline 485.00) was 427.65 ng/dL, the Testosterone levels (plasma testosterone; Group B, 5 mg b.i.d. oral, Day 10, baseline 485.00) was 428.95 ng/dL and the “Elevation of plasma testosterone, comparison of dose groups” value (plasma testosterone; Group B, 5 mg b.i.d., compared with Group C, 10 mg q.d.) was “more significant elevation of plasma testosterone”. For the same molecule, the “Testosterone levels relative to baseline” value (plasma testosterone; Group C, 10 mg q.d. oral) was “higher than the baseline until Day 6”, the Testosterone levels (plasma testosterone; Group C, 10 mg q.d. oral, Day 2, baseline 458.85) was 495.85 ng/dL and the Testosterone levels (plasma testosterone; Group C, 10 mg q.d. oral, Day 3, baseline 458.85) was 501.00 ng/dL. It also gave a Testosterone levels (plasma testosterone; Group C, 10 mg q.d. oral, Day 4, baseline 458.85) of 492.20 ng/dL, a Testosterone levels (plasma testosterone; Group C, 10 mg q.d. oral, Day 5, baseline 458.85) of 463.90 ng/dL and a Testosterone levels (plasma testosterone; Group C, 10 mg q.d. oral, Day 6, baseline 458.85) of 412.65 ng/dL. For the same molecule, the Testosterone levels (plasma testosterone; Group C, 10 mg q.d. oral, Day 7, baseline 458.85) was 435.50 ng/dL, the Testosterone levels (plasma testosterone; Group C, 10 mg q.d. oral, Day 8, baseline 458.85) was 409.00 ng/dL and the Testosterone levels (plasma testosterone; Group C, 10 mg q.d. oral, Day 9, baseline 458.85) was 428.05 ng/dL. The Testosterone levels (plasma testosterone; Group C, 10 mg q.d. oral, Day 10, baseline 458.85) was 405.95 ng/dL.

In the case of “gonadotropin releasing hormone (QHWSYGLRPG; Gonadoliberin-1; UniProt P01148 24-33, looked up) [GnRH, hormone that is secreted by the hypothalamus in a pulsating fashion, also known as LH-RH]”, the “Plasma LH and FSH levels” value (plasma LH and FSH) is listed as “increases in plasma LH and FSH levels” and the “Serum LH levels” value (serum LH) is listed as “Increases in serum LH levels”.
